One assay concerns the target T1, HiBit-BRM fusion protein (Homo sapiens, UniProt P51531).
T1 construct: expressed in transfected cells
The assay is described as follows: HiBiT-BRM cell-based degradation assay (Nano-Glo HiBiT Lytic Detection, 24 h). Conditions: HeLa cell line expressing HiBiT-BRM; for DC50: read-out: BRM HiBit Degradation IC50. In short, it runs like this: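 Percent BRM loss was derived from HiBiT luminescence relative to DMSO-treated cells and cells given 2 μM of a known BRM/BRG1 degrader. Treatment lasted 24 h in HiBiT-BRM HeLa cells, with a top final concentration of 30 μM.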
On the technique in general: The HiBiT peptide binds its large partner to form an active luciferase.

Assay [1] concerns the target T2, HiBit-BRG1 fusion protein (Homo sapiens, UniProt P51532).
T2 construct: expressed in transfected cells
The assay is described as follows: HiBiT-BRG1 cell-based degradation assay (Nano-Glo HiBiT Lytic Detection, 24 h). The conditions noted are these: HeLa cell line expressing HiBit-BRG1 and LgBit; for Dmax: read-out: BRG1 HiBit Degradation Maximum (%); for DC50: read-out: BRMG1 HiBit Degradation IC50. In short, it runs like this: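 Luminescence from Nano-Glo HiBiT lytic detection, read after 24 h compound exposure, scored degradation in a stable HeLa HiBiT-BRG1/LgBit line seeded at 5000 cells/well. DMSO wells defined 0% and 2 μM known BRM/BRG1 degrader wells defined full degradation.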

The values below come from patent US20240024488A1, “COMPOUNDS AND USES THEREOF” (Foghorn Therapeutics Inc., priority 2020, published 2024).

T1 sequence (P51531 whole entry, the tested form may be a part): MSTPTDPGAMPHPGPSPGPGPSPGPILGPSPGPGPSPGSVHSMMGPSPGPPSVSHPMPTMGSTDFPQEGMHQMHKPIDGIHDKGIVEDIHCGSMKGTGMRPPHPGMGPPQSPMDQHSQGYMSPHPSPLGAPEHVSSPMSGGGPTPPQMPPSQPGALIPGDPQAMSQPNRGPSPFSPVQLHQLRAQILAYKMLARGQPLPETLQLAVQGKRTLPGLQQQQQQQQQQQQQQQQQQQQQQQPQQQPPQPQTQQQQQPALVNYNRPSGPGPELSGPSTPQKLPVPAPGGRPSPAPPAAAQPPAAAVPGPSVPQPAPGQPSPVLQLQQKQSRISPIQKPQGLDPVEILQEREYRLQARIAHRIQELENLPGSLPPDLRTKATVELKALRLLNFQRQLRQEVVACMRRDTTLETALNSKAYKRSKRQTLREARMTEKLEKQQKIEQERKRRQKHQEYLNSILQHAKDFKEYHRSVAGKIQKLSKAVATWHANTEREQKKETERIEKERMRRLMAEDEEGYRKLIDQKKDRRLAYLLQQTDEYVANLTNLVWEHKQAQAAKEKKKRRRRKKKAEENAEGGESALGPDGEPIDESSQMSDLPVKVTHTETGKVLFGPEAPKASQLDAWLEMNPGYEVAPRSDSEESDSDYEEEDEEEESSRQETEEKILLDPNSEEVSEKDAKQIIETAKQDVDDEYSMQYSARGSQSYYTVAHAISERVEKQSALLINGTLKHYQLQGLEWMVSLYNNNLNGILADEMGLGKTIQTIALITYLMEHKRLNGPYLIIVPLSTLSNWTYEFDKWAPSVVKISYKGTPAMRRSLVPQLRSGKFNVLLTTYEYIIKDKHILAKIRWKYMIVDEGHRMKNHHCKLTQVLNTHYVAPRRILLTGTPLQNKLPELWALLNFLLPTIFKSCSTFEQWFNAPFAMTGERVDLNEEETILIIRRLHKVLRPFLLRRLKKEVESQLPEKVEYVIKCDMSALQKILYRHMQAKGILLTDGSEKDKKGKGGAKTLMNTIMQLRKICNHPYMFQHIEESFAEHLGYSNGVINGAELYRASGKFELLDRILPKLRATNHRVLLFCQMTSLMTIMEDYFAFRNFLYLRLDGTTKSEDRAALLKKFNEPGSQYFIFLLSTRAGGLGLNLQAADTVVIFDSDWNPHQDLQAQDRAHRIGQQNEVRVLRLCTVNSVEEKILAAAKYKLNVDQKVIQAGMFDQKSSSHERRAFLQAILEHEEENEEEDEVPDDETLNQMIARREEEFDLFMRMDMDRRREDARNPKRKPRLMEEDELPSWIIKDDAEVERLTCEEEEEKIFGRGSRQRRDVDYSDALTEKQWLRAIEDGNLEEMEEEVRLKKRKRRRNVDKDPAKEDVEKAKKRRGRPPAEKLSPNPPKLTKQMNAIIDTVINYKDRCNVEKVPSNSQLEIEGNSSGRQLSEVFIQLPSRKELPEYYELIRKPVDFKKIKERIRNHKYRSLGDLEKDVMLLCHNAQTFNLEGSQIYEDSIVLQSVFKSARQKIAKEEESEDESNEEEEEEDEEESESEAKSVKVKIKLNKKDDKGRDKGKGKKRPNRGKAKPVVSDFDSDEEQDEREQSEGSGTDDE
T2 sequence (P51532 whole entry, the tested form may be a part): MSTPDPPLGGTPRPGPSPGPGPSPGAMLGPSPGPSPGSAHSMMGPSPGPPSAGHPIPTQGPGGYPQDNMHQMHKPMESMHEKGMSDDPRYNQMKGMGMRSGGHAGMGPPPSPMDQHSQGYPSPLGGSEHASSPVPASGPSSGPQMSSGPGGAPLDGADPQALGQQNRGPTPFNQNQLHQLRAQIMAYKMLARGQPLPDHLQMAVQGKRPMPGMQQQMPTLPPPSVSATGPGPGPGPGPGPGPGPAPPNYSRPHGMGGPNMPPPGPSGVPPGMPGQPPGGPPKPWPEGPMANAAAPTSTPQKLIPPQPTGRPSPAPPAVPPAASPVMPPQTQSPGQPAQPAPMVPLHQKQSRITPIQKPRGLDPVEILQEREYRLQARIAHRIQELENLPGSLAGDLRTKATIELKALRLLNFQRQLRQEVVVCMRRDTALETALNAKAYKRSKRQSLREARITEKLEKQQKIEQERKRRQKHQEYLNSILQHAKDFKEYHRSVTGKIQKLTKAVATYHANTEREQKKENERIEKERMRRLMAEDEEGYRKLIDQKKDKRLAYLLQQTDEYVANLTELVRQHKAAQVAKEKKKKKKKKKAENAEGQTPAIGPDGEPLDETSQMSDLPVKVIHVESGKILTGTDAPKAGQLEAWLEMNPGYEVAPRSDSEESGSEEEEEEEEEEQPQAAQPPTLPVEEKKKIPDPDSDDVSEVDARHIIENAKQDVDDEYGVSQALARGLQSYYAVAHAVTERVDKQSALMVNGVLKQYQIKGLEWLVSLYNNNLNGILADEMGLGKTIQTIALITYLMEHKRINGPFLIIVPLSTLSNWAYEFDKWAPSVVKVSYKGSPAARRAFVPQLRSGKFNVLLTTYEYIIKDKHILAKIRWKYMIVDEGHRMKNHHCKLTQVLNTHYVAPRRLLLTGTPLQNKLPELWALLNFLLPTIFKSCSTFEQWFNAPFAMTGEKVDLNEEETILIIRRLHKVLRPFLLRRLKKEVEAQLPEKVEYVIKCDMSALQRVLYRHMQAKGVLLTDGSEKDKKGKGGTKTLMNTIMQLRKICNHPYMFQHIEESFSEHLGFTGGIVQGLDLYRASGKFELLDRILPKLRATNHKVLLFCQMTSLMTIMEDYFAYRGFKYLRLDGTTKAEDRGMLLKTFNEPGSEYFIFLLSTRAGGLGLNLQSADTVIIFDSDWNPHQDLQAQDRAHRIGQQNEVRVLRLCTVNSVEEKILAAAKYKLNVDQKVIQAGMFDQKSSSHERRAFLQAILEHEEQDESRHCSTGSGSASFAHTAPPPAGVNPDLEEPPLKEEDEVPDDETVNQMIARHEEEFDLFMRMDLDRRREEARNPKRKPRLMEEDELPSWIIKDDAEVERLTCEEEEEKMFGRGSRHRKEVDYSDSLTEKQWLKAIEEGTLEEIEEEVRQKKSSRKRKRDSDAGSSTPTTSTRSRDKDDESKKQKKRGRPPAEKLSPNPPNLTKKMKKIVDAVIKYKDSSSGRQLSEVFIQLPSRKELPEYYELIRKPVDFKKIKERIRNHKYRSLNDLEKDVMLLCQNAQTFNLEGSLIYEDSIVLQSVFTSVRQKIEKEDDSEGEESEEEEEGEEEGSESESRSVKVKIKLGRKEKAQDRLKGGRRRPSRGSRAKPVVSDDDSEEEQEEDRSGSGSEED

For the compound `Cc1ncsc1-c1ccc([C@H](C)NC(=O)[C@@H]2C[C@@H](O)CN2C(=O)[C@@H](c2cc(OCCNCCN3CC(c4cc5cc(-c6ccccc6O)nnc5[nH]4)C3)no2)C(C)C)cc1` (racemic) [Compound 300], at HiBit-BRM fusion protein, the “BRM HiBit Degradation Maximum (%)” value is on record as “A (“A” indicates maximum degradation ≥ 75%)” and the DC50 is above 100 nM. Besides, the Dmax in assay [1] is above 50%.
Consider `Cc1ncsc1-c1ccc(CNC(=O)[C@@H]2C[C@@H](O)CN2C(=O)[C@@H](NC(=O)CCCCCCCCCCC(=O)N2CC(c3c[nH]c4nnc(-c5ccccc5O)cc34)C2)C(C)(C)C)cc1` [Compound 46, (2S,4R)-4-hydroxy-1-((S)-2-(12-(3-(3-(2-hydroxyphenyl)-7H-pyrrolo[2,3-c]pyridazin-5-yl)azetidin-1-yl)-12-oxododecanamido)-3,3-dimethylbutanoyl)-N-(4-(4-methylthiazol-5-yl)benzyl)pyrrolidine-2-carboxamide], for which the “BRM HiBit Degradation Maximum (%)” value at HiBit-BRM fusion protein is “C (“C” indicates maximum degradation < 50%)”. Moreover, the Dmax in assay [1] is below 50%.
For `O=C1CCC(N2C(=O)c3cccc(OCCOCCOCCC(=O)N4CC(c5cc6cc(-c7ccccc7O)nnc6[nH]5)C4)c3C2=O)C(=O)N1` (stereo not shown) [Compound 23, 2-(2,6-dioxopiperidin-3-yl)-4-(2-(2-(3-(3-(3-(2-hydroxyphenyl)-7H-pyrrolo[2,3-c]pyridazin-6-yl)azetidin-1-yl)-3-oxopropoxy)ethoxy)ethoxy)isoindoline-1,3-dione], in that order: “C (“C” indicates maximum degradation < 50%)” and below 50%.
The matching figures for `Cc1ncsc1-c1ccc(CNC(=O)[C@@H]2C[C@@H](O)CN2C(=O)[C@@H](NC(=O)CCCCCNC(=O)[C@H]2CCc3[nH]c4nnc(-c5ccccc5O)cc4c3C2)C(C)(C)C)cc1` (racemic) [Compound 189, (S)-N-(6-(((S)-1-((2S,4R)-4-hydroxy-2-((4-(4-methylthiazol-5-yl)benzyl)carbamoyl)pyrrolidin-1-yl)-3,3-dimethyl-1-oxobutan-2-yl)amino)-6-oxohexyl)-3-(2-hydroxyphenyl)-6,7,8,9-tetrahydro-5H-pyridazino[3,4-b]indole-6-carboxamide]: “C (“C” indicates maximum degradation < 50%)” and below 50%.
As for `Cc1ncsc1-c1ccc([C@H](C)NC(=O)[C@@H]2C[C@@H](O)CN2C(=O)[C@@H](c2cc(N3CCN(CCC(=O)N4CC(c5c[nH]c6nnc(-c7ccccc7O)cc56)C4)CC3)no2)C(C)C)cc1` (racemic) [Compound 251, (2S,4R)-4-hydroxy-1-((R)-2-(3-(4-(3-(3-(3-(2-hydroxyphenyl)-7H-pyrrolo[2,3-c]pyridazin-5-yl)azetidin-1-yl)-3-oxopropyl)piperazin-1-yl)isoxazol-5-yl)-3-methylbutanoyl)-N-((S)-1-(4-(4-methylthiazol-5-yl)phenyl)ethyl)pyrrolidine-2-carboxamide], on HiBit-BRM fusion protein, the “BRM HiBit Degradation Maximum (%)” value is reported as “A (“A” indicates maximum degradation ≥ 75%)” and the DC50 was above 100 nM. Further, in assay [1], the Dmax was above 75% and the DC50 was above 100 nM.
For the compound `Cc1ncsc1-c1ccc([C@H](C)NC(=O)[C@@H]2C[C@@H](O)CN2C(=O)[C@@H](c2cc(OCCCN3CCN(Cc4cc5cc(-c6ccccc6O)nnc5[nH]4)CC3)no2)C(C)C)cc1` (racemic) [Compound 214, (2S,4R)-4-hydroxy-1-((R)-2-(3-(3-(4-((3-(2-hydroxyphenyl)-7H-pyrrolo[2,3-c]pyridazin-6-yl)methyl)piperazin-1-yl)propoxy)isoxazol-5-yl)-3-methylbutanoyl)-N-((S)-1-(4-(4-methylthiazol-5-yl)phenyl)ethyl)pyrrolidine-2-carboxamide], at HiBit-BRM fusion protein, the “BRM HiBit Degradation Maximum (%)” value is given as “A (“A” indicates maximum degradation ≥ 75%)” and the DC50 is above 100 nM. In addition, in assay [1], the Dmax is above 75% and the DC50 was above 100 nM.
On to `Cc1ncsc1-c1ccc([C@H](C)NC(=O)[C@@H]2C[C@@H](O)CN2C(=O)[C@@H](c2cc(OCCN(C)CCN3CC(c4cc5cc(-c6ccccc6O)nnc5[nH]4)C3)no2)C(C)C)cc1` (racemic) [Compound 59, (2S,4R)-4-hydroxy-1-((R)-2-(3-(2-((2-(3-(3-(2-hydroxyphenyl)-7H-pyrrolo[2,3-c]pyridazin-6-yl)azetidin-1-yl)ethyl)(methyl)amino)ethoxy)isoxazol-5-yl)-3-methylbutanoyl)-N-((S)-1-(4-(4-methylthiazol-5-yl)phenyl)ethyl)pyrrolidine-2-carboxamide], for which, at HiBit-BRM fusion protein, the “BRM HiBit Degradation Maximum (%)” value is recorded as “B (“B” indicates maximum degradation ≥ 50%)” and the DC50 was above 100 nM. Also, in assay [1], the Dmax is below 50%.
The matching figures for `Cc1ncsc1-c1ccc([C@H](C)NC(=O)[C@@H]2C[C@@H](O)CN2C(=O)[C@@H](c2cc(N3CCN(C(=O)C(=O)N4CC(c5cc6cc(-c7ccccc7O)nnc6[nH]5)C4)CC3)no2)C(C)C)cc1` (single isomer, unassigned) [Compound 234]: “A (“A” indicates maximum degradation ≥ 75%)”, above 100 nM and below 50%.
Take `Cc1ncsc1-c1ccc([C@H](C)NC(=O)[C@@H]2C[C@@H](O)CN2C(=O)[C@@H](c2cc(OCCN3CC4(Cc5cc(-c6ccccc6O)nnc5N4)C3)no2)C(C)C)cc1` (racemic) [Compound 186, (2S,4R)-4-hydroxy-1-((R)-2-(3-(2-(3′-(2-hydroxyphenyl)-5′,7′-dihydrospiro[azetidine-3,6′-pyrrolo[2,3-c]pyridazin]-1-yl)ethoxy)isoxazol-5-yl)-3-methylbutanoyl)-N-((S)-1-(4-(4-methylthiazol-5-yl)phenyl)ethyl)pyrrolidine-2-carboxamide]: at HiBit-BRM fusion protein, the “BRM HiBit Degradation Maximum (%)” value is listed as “A (“A” indicates maximum degradation ≥ 75%)” and the DC50 is above 10 nM. In assay [1], the Dmax was above 75% and the DC50 is above 100 nM.
For the compound `Cc1ncsc1-c1ccc(CNC(=O)[C@@H]2C[C@@H](O)CN2C(=O)[C@@H](NC(=O)CCCCCCCNCCC(=O)N2CC(c3cc4cc(-c5ccccc5O)nnc4[nH]3)C2)C(C)(C)C)cc1` (racemic) [Compound 66, (2S,4R)-4-hydroxy-1-((S)-2-(8-((3-(3-(3-(2-hydroxyphenyl)-7H-pyrrolo[2,3-c]pyridazin-6-yl)azetidin-1-yl)-3-oxopropyl)amino)octanamido)-3,3-dimethylbutanoyl)-N-(4-(4-methylthiazol-5-yl)benzyl)pyrrolidine-2-carboxamide], the “BRM HiBit Degradation Maximum (%)” value on HiBit-BRM fusion protein was “C (“C” indicates maximum degradation < 50%)”. Besides, the Dmax in assay [1] is below 50%.
Take `Cc1ncsc1-c1ccc([C@H](C)NC(=O)[C@@H]2C[C@@H](O)CN2C(=O)C(c2cc(OCCN[C@]3(C(=O)O)CCc4[nH]c5nnc(-c6ccccc6O)cc5c4C3)no2)C(C)C)cc1` (single isomer, unassigned) [Compound 91]: at HiBit-BRM fusion protein, the “BRM HiBit Degradation Maximum (%)” value is on record as “C (“C” indicates maximum degradation < 50%)”. The Dmax in assay [1] is below 50%.
As to `Cc1ncsc1-c1ccc([C@H](C)NC(=O)[C@@H]2C[C@@H](O)CN2C(=O)[C@@H](c2cc(OCCN3CC[C@@H](c4c(C)[nH]c5nnc(-c6ccccc6O)cc45)C3)no2)C(C)C)cc1` (single isomer, unassigned) [Compound 232], on HiBit-BRM fusion protein, the “BRM HiBit Degradation Maximum (%)” value is “C (“C” indicates maximum degradation < 50%)” and the DC50 was above 1000 nM. Besides, the Dmax in assay [1] was below 50%.
